Test results from patent US10213415B2, “Compounds as opioid receptor modulators” (JANSSEN PHARMACEUTICA NV, priority 2004, dated 2019).
Values joined by “and” are separate entries in the source; they are usually repeats but may differ in a detail not shown here. Equal values may be shown once. Read-outs that look alike come from different tables or passages of the source.

Key:
[1] = target: T1, human delta subtype 2 opioid receptor (Homo sapiens, UniProt P41143); test: Human Delta Opioid Receptor Binding Assay (CHO membranes, 3H-Naltrindole); settings: read-out: hKi δ
T1 construct: purchased Perkin Elmer RBHODM400UA; host or cells: Chinese Hamster Ovary cells (recombinant expression)
Outline: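 Filtration binding on CHO-cell membranes expressing the human receptor, in 50 mM Tris pH 7.5 with 5 mM MgCl2, 30 min at room temperature; 3H-naltrindole diluted to 6 nM before mixing 1:1 with compound. Nonspecific binding defined with 1 μM unlabelled naltrindole; inhibition relative to no-inhibitor wells.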

[2] = system: novel environment-stressed mice; test: In Vivo Assay-Stress-Induced Fecal Output (Fecal Output for 1 hr); set-up: species or system mouse; settings: for response vs control in vivo at 10 mg/kg / response vs control in vivo at 30 mg/kg: Mus musculus, po, 1 h; for response vs control in vivo at 10 mg/kg / Fecal Output (# pellets) cpd / response vs control in vivo at 30 mg/kg: 1 hr; for Fecal Output (# pellets) cpd: novel environment-stressed mice
Outline: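 Adult male Crl:CD-1(ICR) mice (˜30-35 g; at least 10 per dose group) were split into acclimated non-stressed controls, held individually for 16-18 hr in wire-mesh-bottom cages, and non-acclimated stressed groups. Mice were dosed intragastrically with vehicle or test compound in 0.5% methylcellulose, housed individually in novel cages over absorbent cardboard, and fecal pellets per mouse were counted hourly.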

male CD-1 mice [3] = test: In Vivo Assay: Upper GI Tract Transit (MUGIT); settings: Mus musculus, po, 1 h, dose 30 (mg), p.o., read-out: upper GI transit (% ctrl)
Method: Methods: The animals used in these studies were male CD-1 mice, ave. wt. ˜30 g. Mice were housed under 12 h/12 h light/dark cycle, food & water ad lib. On the day of the experiment mice were assigned to experimental groups, including one vehicle-only group (=control). At 30 min before administration of carmine dye, animals were dosed with vehicle or vehicle-plus-compound, mice were returned to their home cages after drug administration. After administration of carmine, the animals were either returned to their home cages (non-stressed) or individually placed in the same metal cages as used in the fecal output or entire GI tract transit to induce a novel environment stress. One hour after administration of carmine, mice were sacrificed by cervical dislocation, the abdomen opened midventrally, the small intestine from pylorus to cecum was removed, the mesentery divided in order to lay the intestine straight & flat—without stretching. The total length of intestine and the length of carmine-dyed intestine were measured in order to determine the percent of the upper GI tract over which transit had occurred as follows: {(Length of carmine-dyed intestine)/(Total length of intestine)}×100=% upper GI transit. The data expressed were group means±SD (or s.e.m.) and data expressed as % of control.

male CD-1 mice [4] = test: In Vivo Assay: Stress-Induced Entire GI Tract Transit (MEGIT, MEGIT-NES, MEGIT-RS); set-up: species or system mouse; settings: dose 20 p.o., restraint stress
Method: Methods: The animals used in these studies are male CD-1 mice, ave. wt. ˜30 g. Procedure: Mice were housed in LAM under 12 h/12 h light/dark cycle, food & water ad lib. On the day before the experiments, the mice assigned to the “acclimated” (non-stressed) control group were placed into individual wire mesh-bottomed cages, provided food and water ad lib. The acclimated control group was in this new environment for 16-18 hrs prior to beginning the test. On the day of the experiment, mice assigned to experimental groups were housed in home cages were transported to procedure room and remain in their home cages until the start of the transit portion of the study. […] After the carmine marker was administered each mouse was placed in the novel environment cage. One hour after administration of carmine, the fecal pellet output of each animal was recorded. At one-hour intervals thereafter the fecal pellets were examined for the presence of carmine-dye. The number of mice that excreted a carmine-containing fecal pellet at the end of each hour post carmine administration was recorded, until all mice had excreted carmine in a fecal pellet or the end of 6 hrs post carmine administration, whichever occurred first. A variant of this novel environment stress (NES) paradigm is to use the same procedures of dye and compound administrations, but to use restraint (confinement in a small plastic tube for 3 hr) as a stressor (RS=restraint stress), followed by two hours in an individual cage (total of 5 hr fecal transit time). […] The mouse entire GI tract (MEGIT) transit test can thus be done in mice that are all acclimated (non-stressed), in which case the data are expressed as % control (vehicle only), or in mice that are exposed to NES or RS, in which cases the data are expressed as % of the vehicle treated NES or RS group.

[5] = 10 mg/kg oral, relative to novel environment stress (NES) vehicle group, read-out: Fecal Output cpd % NES
[6] = 30 mg/kg oral, relative to acclimated control, read-out: Fecal Output cpd % control
[7] = 30 mg/kg oral, relative to novel environment stress (NES) vehicle group, read-out: Fecal Output cpd % NES
[8] = 10 mg/kg oral, relative to acclimated control, read-out: Fecal Output cpd % control

T1 sequence (P41143 whole entry): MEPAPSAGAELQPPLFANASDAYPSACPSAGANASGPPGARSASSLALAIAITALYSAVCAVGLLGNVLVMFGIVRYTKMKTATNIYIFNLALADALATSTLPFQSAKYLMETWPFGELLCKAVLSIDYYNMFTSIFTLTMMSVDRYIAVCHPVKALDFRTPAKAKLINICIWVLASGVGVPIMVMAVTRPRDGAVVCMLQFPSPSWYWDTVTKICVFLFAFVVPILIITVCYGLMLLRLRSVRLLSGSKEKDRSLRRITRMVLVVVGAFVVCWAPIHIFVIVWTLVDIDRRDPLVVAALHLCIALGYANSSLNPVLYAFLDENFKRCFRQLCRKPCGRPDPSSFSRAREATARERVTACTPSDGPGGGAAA

## CC(C)N(Cc1nc(-c2ccccc2)c[nH]1)C(=O)[C@@H](N)Cc1ccc(O)cc1 [Cpd 195]
[1]
  Ki: > 10000 nM

## Cc1cc(O)cc(C)c1C[C@H](N)C(=O)N(C)Cc1nc(-c2ccccc2)c[nH]1 [Cpd 199]
[2]; [5]
  response vs control in vivo at 10 mg/kg: 86.7%
[1]
  Ki: 209 nM

## C[C@H](c1nc(-c2ccccc2)c[nH]1)N(C)C(=O)[C@@H](N)Cc1ccc(C(N)=O)cc1 [Cpd 203]
[1]
  Ki: 501 nM

## Cc1cc(O)cc(C)c1C[C@H](N)C(=O)N(C)[C@@H](C)c1nc(Cc2ccccc2)c[nH]1 [Cpd 205]
[2]; 30 mg/kg oral
  Fecal Output (# pellets) cpd: 2.3 pellets
[2]; [6]
  response vs control in vivo at 30 mg/kg: 70.7%
[2]; [7]
  response vs control in vivo at 30 mg/kg: 24.6%

## Cc1cc(O)cc(C)c1C[C@H](N)C(=O)N(C)[C@H](C)c1nc(-c2ccccc2)c[nH]1 [Cpd 206]
[2]; 10 mg/kg oral
  Fecal Output (# pellets) cpd: 8.6 pellets
[2]; [8]
  response vs control in vivo at 10 mg/kg: 226%
[2]; [5]
  response vs control in vivo at 10 mg/kg: 65.6%
[1]
  Ki: 275 nM

## Cc1cc(O)cc(C)c1C[C@H](N)C(=O)N(C)[C@@H](C)c1nc(-c2ccccc2)c[nH]1 [Cpd 207]
[2]; [7]
  response vs control in vivo at 30 mg/kg: 49.6%
[2]; dose 0.3, oral, NES mice, fecal output 1 hr
  # of pellets, Compound (m) 0.3: 11.4
[2]; dose 0.3, oral, NES mice, vs acclimated control
  Fecal pellet output, Compound (% control) 0.3: 219.2 % control
[2]; dose 0.3, oral, vs vehicle NES group
  Fecal pellet output, Compound (% NES) 0.3: 100 % NES
[2]; dose 0.5, oral, NES mice, fecal output 1 hr
  # of pellets, Compound (m) 0.5: 9.4
[2]; dose 0.5, oral, NES mice, vs acclimated control
  Fecal pellet output, Compound (% control) 0.5: 195.8 % control
[2]; dose 0.5, oral, vs vehicle NES group
  Fecal pellet output, Compound (% NES) 0.5: 109 % NES
[2]; dose 3.0, oral, NES mice, fecal output 1 hr
  # of pellets, Compound (m) 3.0: 12 and 7.3
[2]; dose 3.0, oral, NES mice, vs acclimated control
  Fecal pellet output, Compound (% control) 3.0: 228.8 % control and 202.8 % control
[2]; dose 3.0, oral, vs vehicle NES group
  Fecal pellet output, Compound (% NES) 3.0: 104.4 % NES and 112.3 % NES
[2]; dose 5.0, oral, NES mice, fecal output 1 hr
  # of pellets, Compound (m) 5.0: 8.6
[2]; dose 5.0, oral, NES mice, vs acclimated control
  Fecal pellet output, Compound (% control) 5.0: 179.2 % control
[2]; dose 5.0, oral, vs vehicle NES group
  Fecal pellet output, Compound (% NES) 5.0: 100 % NES
[2]; dose 6.0, oral, NES mice, fecal output 1 hr
  # of pellets, Compound (m) 6.0: 7.5
[2]; dose 6.0, oral, NES mice, vs acclimated control
  Fecal pellet output, Compound (% control) 6.0: 220.6 % control
[2]; dose 6.0, oral, vs vehicle NES group
  Fecal pellet output, Compound (% NES) 6.0: 69.44 % NES
[2]; dose 10.0, oral, NES mice, fecal output 1 hr
  # of pellets, Compound (m) 10.0: 4.9 and 6.7 and 5.5 and 4.8
[2]; dose 10.0, oral, NES mice, vs acclimated control
  Fecal pellet output, Compound (% control) 10.0: 94.2 % control and 139.6 % control and 161.8 % control and 133.3 % control
[2]; dose 10.0, oral, vs vehicle NES group
  Fecal pellet output, Compound (% NES) 10.0: 42.98 % NES and 77.91 % NES and 50.93 % NES and 73.85 % NES
[2]; dose 30.0, oral, NES mice, fecal output 1 hr
  # of pellets, Compound (m) 30.0: 3.5 and 3.4
[2]; dose 30.0, oral, NES mice, vs acclimated control
  Fecal pellet output, Compound (% control) 30.0: 103 % control and 94 % control
[2]; dose 30, oral, vs vehicle NES group
  Fecal pellet output, Compound (% NES) 30: 32.41 % NES and 52.31 % NES
[1]
  Ki: 132 nM

## CCN(C(=O)[C@@H](N)Cc1c(C)cc(O)cc1C)[C@@H](C)c1nc(-c2ccccc2)c[nH]1 [Cpd 216]
[2]; 10 mg/kg oral
  Fecal Output (# pellets) cpd: 4.9 pellets
[2]; [8]
  response vs control in vivo at 10 mg/kg: 136%
[2]; [5]
  response vs control in vivo at 10 mg/kg: 47.6%

## CCN(C(=O)[C@@H](N)Cc1c(C)cc(O)cc1C)[C@H](C)c1nc(-c2ccccc2)c[nH]1 [Cpd 217]
[1]
  Ki: 506 nM

## Cc1cc(O)cc(C)c1C[C@H](N)C(=O)N(Cc1ccccc1)[C@@H](C)c1nc(-c2ccccc2)c[nH]1 [Cpd 218]
[2]; 30 mg/kg oral
  Fecal Output (# pellets) cpd: 3.7 pellets
[2]; [6]
  response vs control in vivo at 30 mg/kg: 138%
[2]; [7]
  response vs control in vivo at 30 mg/kg: 35.4%
[1]
  Ki: 189 nM

## CC(C)N(C(=O)[C@@H](N)Cc1ccc(O)cc1)[C@@H](C)c1nc(-c2ccccc2)c[nH]1 [Cpd 225]
[2]; 30 mg/kg oral
  Fecal Output (# pellets) cpd: 7.3 pellets
[2]; [6]
  response vs control in vivo at 30 mg/kg: 235%
[2]; [7]
  response vs control in vivo at 30 mg/kg: 152%

## Cc1cc(C(N)=O)cc(C)c1C[C@H](N)C(=O)N(Cc1cccc(C(=O)O)c1)[C@@H](C)c1nc(-c2ccccc2)c[nH]1 [Cpd 227]
Male CD-1 mice [3]
  response vs control in vivo at 30 mg: 93.9%
Male CD-1 mice [4]
  MEGIT-RS entire GI transit 5 hr (% RS): 100 % RS

## Cc1cc(C(N)=O)cc(C)c1C[C@H](N)C(=O)N(Cc1cccc(-c2nnn[nH]2)c1)[C@@H](C)c1nc(-c2ccccc2)c[nH]1 [Cpd 242]
Male CD-1 mice [4]
  MEGIT-RS entire GI transit 5 hr (% RS): 100 % RS

## Cc1cc(C(N)=O)cc(C)c1C[C@H](N)C(=O)N(Cc1ccc(C(=O)O)o1)[C@@H](C)c1nc(-c2ccccc2)c[nH]1 [Cpd 256]
Male CD-1 mice [3]
  response vs control in vivo at 30 mg: 89.7%
